This is an account of results in ChEMBL document CHEMBL5032532, “Synthesis of xanthosine 2-phosphate diesters via phosphitylation of the carbonyl group” (Bioorg Med Chem Lett, 2021).

Molecules are shown by their SMILES.

A short description of series [1]: Chemical stability in PBS buffer at pH 4.8 assessed as compound hydrolysis at 20 mM measured after 7 hrs by RP-HPLC analysis. The series is classed as physicochemical. The settings on record: read-out: Drug degradation.
Series [2] in a line: Chemical stability in human serum assessed as compound hydrolysis at 20 mM measured upto 8 hrs by RP-HPLC analysis. The series is classed as physicochemical, cell-free. The settings on record: 20000 µM.
Series [3] in a line: Chemical stability in PBS buffer at pH 11.1 assessed as compound hydrolysis at 20 mM measured upto 8 hrs by RP-HPLC analysis. The format is physicochemical. The settings on record: pH 11.1, 8 h, 20000 µM.
Series [4] in a line: Chemical stability in PBS buffer at pH 6.8 assessed as compound hydrolysis at 20 mM measured after 7 hrs by RP-HPLC analysis. The format is physicochemical. As to conditions: read-out: Drug degradation.

As to `CCN(CC)CC.O=c1[nH]c(OP(=O)(O)Oc2ccccc2)nc2c1ncn2[C@@H]1O[C@H](CO)[C@@H](O)[C@H]1O`, the degraded at 7 h, 20000 µM in series [1] is 50%; in series [4], 40%. Besides, the values for the Stability result in series [2] and in series [3] were “Unstable” and “Stable”, respectively.
